Laboratory results published in US7939621B2, “Oligocarbonate molecular transporters” (International Business Machines Corporation, priority 2009, dated 2011).

Key:
Jurkat cells [1] = assay: MTT toxicity assay; format: cell-based; conditions: Homo sapiens, 24 h with compound at 37° C., then 24 h fresh media
Method: Jurkat cells grown in 10% FBS in RPMI media 1640 (+ glutamine) were plated at 5-10×10^4 cells/mL on a 96-well microtiter plate in the same media. In a second 96-well plate, compound was serially diluted in triplicate over 20 wells in columns 2-11 and rows 1-3 and 5-7; typical dilutions spanned the concentration range of 400 μM to 20 nM. Columns 1 and 12 contained no cells and no compound, respectively. Rows 4 and 8 contained a serial dilution of colchicine as internal control; colchicine concentrations were generally much lower than compound concentrations in order to obtain an EC50 (half-maximal effective concentration).
Compounds were added to the plate containing cells and the cells were incubated at 37° C. for 24 h, at which point the plate was centrifuged, compound removed, and the cells resuspended in fresh media. […] Cells were incubated with MTT for 3 hours at 37° C., 150 μL solubilizing solution (10% triton X-100, 90% 0.1N HCl in isopropanol) was added to each well, and colorimetry data obtained on a plate reader.
Numerical data from plate reader was standardized using values from columns 1 and 12 and curve fitting was performed using Graph Pad Prism software to obtain an EC50 for each compound.

Jurkat cells [2] = assay: Cellular uptake assay by flow cytometry; format: cell-based; conditions: 5, 12.5, 25 μM, pH 7.2 PBS, 5 min, 23° C.
Method: Dansyl-tagged oligomers and octaarginine control were brought up in pH 7.2 PBS buffer at 5 μM, 12.5 μM, and 25 μM concentrations. […] Cells were plated on a microtiter plate at 3.0×10^6 cells/mL with 200 μL/well. The plate was centrifuged (1300 rpm for 3 min), media removed, and cells resuspended in PBS buffer twice.
Compounds 6(a-c) and the r8 control at varying concentrations were incubated with the cells for 5 minutes at 23° C. The microtiter plates were centrifuged and the cells were isolated, washed with PBS and resuspended in PBS containing propidium iodide (3 μg/mL, 0.01%). The cells were analyzed using a fluorescent flow cytometer (Vantoo, Stanford University) equipped with a UV laser for excitation of the dansyl fluorophore, and cells stained with propidium iodide were excluded from the analysis. The data presented are the mean fluorescent signals for the 20,000 cells analyzed.

For CN(C)c1cccc2c(S(=O)(=O)NCCO)cccc12 [Compound 4, 5-(dimethylamino)-N-(2-hydroxyethyl)naphthalene-1-sulfonamide, reference compound], which EC50 (Jurkat cells [1]) is on record?
Its EC50 is 311 µM.

What about the “Cellular uptake into Jurkat cells” value (Jurkat cells [2]) of the same compound?
Its value is “does not enter Jurkat cells”.
